Measured values taken from ChEMBL document CHEMBL1201862, “PubChem BioAssay data set” (2004).
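48-hour exposure; five concentrations; linearly interpolated endpoints. GI50 = concentration required for 50% inhibition of growth.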 Active and inactive are the calls of the source. No stated cut-off is given here; in the data, active = GI50 up to about 1.1 µM and inactive = higher.

Legend:
Assay in all cases: growth of human tumour cells (NCI), 48 h
786-0 = tested on: 786-0
A498 = tested on: A498
A549 = tested on: A549
ACHN = tested on: ACHN
CAKI-1 = tested on: CAKI-1
CCRF-CEM = tested on: CCRF-CEM
COLO 205 = tested on: COLO 205
DLD-1 = tested on: DLD-1
DMS-114 = tested on: DMS-114
DMS-273 = tested on: DMS-273
EKVX = tested on: EKVX
HCC 2998 = tested on: HCC 2998
HCT-116 = tested on: HCT-116
HCT-15 = tested on: HCT-15
HL-60 = tested on: HL-60
HOP-18 = tested on: HOP-18
HOP-92 = tested on: HOP-92
HT-29 = tested on: HT-29
IGROV-1 = tested on: IGROV-1
K562 = tested on: K562
KM-20L2 = tested on: KM-20L2
KM12 = tested on: KM12
LOX IMVI = tested on: LOX IMVI
LXFL 529 = tested on: LXFL 529
M14 = tested on: M14
M19-MEL = tested on: M19-MEL
MOLT-4 = tested on: MOLT-4
Malme-3M = tested on: Malme-3M
NCI-H226 = tested on: NCI-H226
NCI-H23 = tested on: NCI-H23
NCI-H460 = tested on: NCI-H460
NCI-H522 = tested on: NCI-H522
OVCAR-3 = tested on: OVCAR-3
OVCAR-4 = tested on: OVCAR-4
OVCAR-5 = tested on: OVCAR-5
OVCAR-8 = tested on: OVCAR-8
RPMI-8226 = tested on: RPMI-8226
RXF 631 = tested on: RXF 631
SF-268 = tested on: SF-268
SF-295 = tested on: SF-295
SF-539 = tested on: SF-539
SK-MEL-2 = tested on: SK-MEL-2
SK-MEL-5 = tested on: SK-MEL-5
SK-OV-3 = tested on: SK-OV-3
SN12C = tested on: SN12C
SNB-19 = tested on: SNB-19
SNB-78 = tested on: SNB-78
SW-620 = tested on: SW-620
TK-10 = tested on: TK-10
U-251 = tested on: U-251
UACC-257 = tested on: UACC-257
UACC-62 = tested on: UACC-62
UO-31 = tested on: UO-31
XF498 = tested on: XF498
HOP-62 = tested on: HOP-62
RXF 393 = tested on: RXF 393
SK-MEL-28 = tested on: SK-MEL-28
SNB-75 = tested on: SNB-75
SR = tested on: SR

In the case of `O=C(CCC(=O)Nc1cccc(C(F)(F)F)c1)CC(=O)c1ccc2ccccc2c1`, the GI50 (786-0) is reported as > 100 µM (inactive), the GI50 (A498) is reported as > 100 µM (inactive) and the GI50 (A549) is reported as > 100 µM (inactive). The GI50 (ACHN) was > 100 µM (inactive), the GI50 (CAKI-1) was > 100 µM (inactive) and the GI50 (CCRF-CEM) was > 100 µM (inactive). For the same molecule, the GI50 (COLO 205) was > 100 µM (inactive), the GI50 (DLD-1) was > 100 µM (inactive) and the GI50 (DMS-114) was > 100 µM (inactive). For the same molecule, the GI50 (DMS-273) was > 100 µM (inactive), the GI50 (EKVX) was > 100 µM (inactive) and the GI50 (HCC 2998) was > 100 µM (inactive). The GI50 (HCT-116) was > 100 µM (inactive), the GI50 (HCT-15) was greater than 100 µM and the GI50 (HL-60) was > 100 µM (inactive). For the same molecule, the GI50 (HOP-18) was > 100 µM (inactive), the GI50 (HOP-92) was > 100 µM (inactive) and the GI50 (HT-29) was > 100 µM (inactive). The GI50 (IGROV-1) was > 100 µM (inactive), the GI50 (K562) was > 100 µM (inactive) and the GI50 (KM-20L2) was > 100 µM (inactive). For the same molecule, the GI50 (KM12) was > 100 µM (inactive), the GI50 (LOX IMVI) was > 100 µM (inactive) and the GI50 (LXFL 529) was > 100 µM (inactive). For the same molecule, the GI50 (M14) was > 100 µM (inactive), the GI50 (M19-MEL) was > 100 µM (inactive) and the GI50 (MOLT-4) was > 100 µM (inactive). For the same molecule, the GI50 (Malme-3M) was > 100 µM (inactive), the GI50 (NCI-H226) was > 100 µM (inactive) and the GI50 (NCI-H23) was > 100 µM (inactive). The GI50 (NCI-H460) was > 100 µM (inactive), the GI50 (NCI-H522) was > 100 µM (inactive) and the GI50 (OVCAR-3) was > 100 µM (inactive). For the same molecule, the GI50 (OVCAR-4) was > 100 µM (inactive), the GI50 (OVCAR-5) was > 100 µM (inactive) and the GI50 (OVCAR-8) was > 100 µM (inactive). For the same molecule, the GI50 (RPMI-8226) was > 100 µM (inactive), the GI50 (RXF 631) was > 100 µM (inactive) and the GI50 (SF-268) was > 100 µM (inactive). For the same molecule, the GI50 (SF-295) was > 100 µM (inactive), the GI50 (SF-539) was > 100 µM (inactive) and the GI50 (SK-MEL-2) was > 100 µM (inactive). The GI50 (SK-MEL-5) was > 100 µM (inactive), the GI50 (SK-OV-3) was > 100 µM (inactive) and the GI50 (SN12C) was > 100 µM (inactive). The GI50 (SNB-19) was > 100 µM (inactive), the GI50 (SNB-78) was > 100 µM (inactive) and the GI50 (SW-620) was > 100 µM (inactive). For the same molecule, the GI50 (TK-10) was > 100 µM (inactive), the GI50 (U-251) was > 100 µM (inactive) and the GI50 (UACC-257) was > 100 µM (inactive). For the same molecule, the GI50 (UACC-62) was > 100 µM (inactive), the GI50 (UO-31) was > 100 µM (inactive) and the GI50 (XF498) was > 100 µM (inactive).
With `O=[N+]([O-])c1ccc(C2N3CCCCC3[C@@H]3c4[nH]c5ccccc5c4CCN23)cc1` (stereo not given in full) the GI50 (786-0) was 28.1 µM (inactive), the GI50 (A498) was 11.3 µM (inactive) and the GI50 (A549) was 19.5 µM (inactive). The GI50 (ACHN) was 12.8 µM (inactive), the GI50 (CAKI-1) was 26.9 µM (inactive) and the GI50 (CCRF-CEM) was 27.5 µM (inactive). The GI50 (COLO 205) was 17.6 µM (inactive), the GI50 (DLD-1) was 10.8 µM (inactive) and the GI50 (DMS-114) was 7.19 µM (inactive). The GI50 (DMS-273) was 17.5 µM (inactive), the GI50 (EKVX) was 29.9 µM (inactive) and the GI50 (HCT-116) was 6.44 µM (inactive). For the same molecule, the GI50 (HCT-15) was 14.3 µM, the GI50 (HL-60) was 80.2 µM (inactive) and the GI50 (HOP-18) was 67.3 µM (inactive). For the same molecule, the GI50 (HOP-62) was 19.5 µM (inactive), the GI50 (HOP-92) was 44.6 µM (inactive) and the GI50 (HT-29) was 3.48 µM (inactive). The GI50 (IGROV-1) was 24 µM (inactive), the GI50 (K562) was 7.82 µM (inactive) and the GI50 (KM-20L2) was 11 µM (inactive). The GI50 (LXFL 529) was 16.8 µM (inactive), the GI50 (M14) was 16.1 µM (inactive) and the GI50 (M19-MEL) was 6.07 µM (inactive). For the same molecule, the GI50 (MOLT-4) was 10.2 µM (inactive), the GI50 (Malme-3M) was < 0.01 µM (active) and the GI50 (NCI-H23) was 15.5 µM (inactive). The GI50 (NCI-H460) was 19.2 µM (inactive), the GI50 (OVCAR-3) was 18.4 µM (inactive) and the GI50 (OVCAR-4) was 22.6 µM (inactive). The GI50 (OVCAR-5) was 25.9 µM (inactive), the GI50 (OVCAR-8) was 30.4 µM (inactive) and the GI50 (RPMI-8226) was 16.5 µM (inactive). For the same molecule, the GI50 (RXF 393) was 4.59 µM (inactive), the GI50 (RXF 631) was 28.5 µM (inactive) and the GI50 (SF-268) was 15.4 µM (inactive). For the same molecule, the GI50 (SF-295) was 26.1 µM (inactive), the GI50 (SF-539) was 13.3 µM (inactive) and the GI50 (SK-MEL-28) was 16.3 µM (inactive). For the same molecule, the GI50 (SK-MEL-2) was 16.9 µM (inactive), the GI50 (SK-MEL-5) was 15 µM (inactive) and the GI50 (SK-OV-3) was 22.6 µM (inactive). For the same molecule, the GI50 (SN12C) was 15.4 µM (inactive), the GI50 (SNB-19) was 16.6 µM (inactive) and the GI50 (SNB-75) was 0.0638 µM (active). The GI50 (SNB-78) was 3.96 µM (inactive), the GI50 (SR) was 3.12 µM (inactive) and the GI50 (SW-620) was 22.6 µM (inactive). The GI50 (TK-10) was 10.7 µM (inactive), the GI50 (U-251) was 20.2 µM (inactive) and the GI50 (UACC-257) was 16.5 µM (inactive). For the same molecule, the GI50 (UACC-62) was 5.22 µM (inactive), the GI50 (UO-31) was 16.1 µM (inactive) and the GI50 (XF498) was 17.8 µM (inactive).
`CC(=O)OCCOCNC(=S)N/N=C/c1cc(Br)cs1` was tested, and the GI50 (786-0) was > 100 µM (inactive), the GI50 (A498) was > 100 µM (inactive) and the GI50 (A549) was > 100 µM (inactive). For the same molecule, the GI50 (ACHN) was > 100 µM (inactive), the GI50 (CCRF-CEM) was > 100 µM (inactive) and the GI50 (COLO 205) was > 100 µM (inactive). For the same molecule, the GI50 (DLD-1) was > 100 µM (inactive), the GI50 (DMS-114) was > 100 µM (inactive) and the GI50 (DMS-273) was > 100 µM (inactive). For the same molecule, the GI50 (EKVX) was > 100 µM (inactive), the GI50 (HCC 2998) was > 100 µM (inactive) and the GI50 (HCT-116) was > 100 µM (inactive). The GI50 (HCT-15) was greater than 100 µM, the GI50 (HL-60) was > 100 µM (inactive) and the GI50 (HOP-18) was > 100 µM (inactive). The GI50 (HOP-62) was > 100 µM (inactive), the GI50 (HT-29) was > 100 µM (inactive) and the GI50 (IGROV-1) was > 100 µM (inactive). The GI50 (K562) was > 100 µM (inactive), the GI50 (KM-20L2) was > 100 µM (inactive) and the GI50 (KM12) was > 100 µM (inactive). The GI50 (LOX IMVI) was > 100 µM (inactive), the GI50 (LXFL 529) was > 100 µM (inactive) and the GI50 (M14) was > 100 µM (inactive). For the same molecule, the GI50 (M19-MEL) was > 100 µM (inactive), the GI50 (MOLT-4) was > 100 µM (inactive) and the GI50 (Malme-3M) was > 100 µM (inactive). For the same molecule, the GI50 (NCI-H226) was > 100 µM (inactive), the GI50 (NCI-H23) was > 100 µM (inactive) and the GI50 (NCI-H460) was > 100 µM (inactive). The GI50 (NCI-H522) was > 100 µM (inactive), the GI50 (OVCAR-3) was > 100 µM (inactive) and the GI50 (OVCAR-4) was > 100 µM (inactive). The GI50 (OVCAR-5) was > 100 µM (inactive), the GI50 (OVCAR-8) was > 100 µM (inactive) and the GI50 (RPMI-8226) was > 100 µM (inactive). The GI50 (RXF 393) was > 100 µM (inactive), the GI50 (RXF 631) was > 100 µM (inactive) and the GI50 (SF-268) was > 100 µM (inactive). For the same molecule, the GI50 (SF-295) was > 100 µM (inactive), the GI50 (SF-539) was > 100 µM (inactive) and the GI50 (SK-MEL-28) was > 100 µM (inactive). The GI50 (SK-MEL-2) was > 100 µM (inactive), the GI50 (SK-MEL-5) was > 100 µM (inactive) and the GI50 (SK-OV-3) was > 100 µM (inactive). For the same molecule, the GI50 (SN12C) was > 100 µM (inactive), the GI50 (SNB-19) was > 100 µM (inactive) and the GI50 (SNB-75) was > 100 µM (inactive). For the same molecule, the GI50 (SNB-78) was > 100 µM (inactive), the GI50 (SR) was > 100 µM (inactive) and the GI50 (SW-620) was > 100 µM (inactive). For the same molecule, the GI50 (TK-10) was > 100 µM (inactive), the GI50 (U-251) was > 100 µM (inactive) and the GI50 (UACC-257) was > 100 µM (inactive). The GI50 (UACC-62) was > 100 µM (inactive), the GI50 (UO-31) was > 100 µM (inactive) and the GI50 (XF498) was > 100 µM (inactive).
